The assay concerns the target acyl CoA: cholesterol acyltransferase (ACAT). The experiment in a line: Inhibiting activity against ACAT activity of rabbit's liver microsome. In kind it is biochemical. To be noted: rabbit's liver microsome enzyme fraction, 1-14C-oleoyl CoA, 37° C.; read-out: Inhibiting activity against ACAT activity: IC (M) 50%. The procedure: Inhibiting activity against acyl CoA: cholesterol acyltransferase (ACAT) activity of rabbit's liver microsome According to Heider's method [J. G. Heider et al., J. of Lipid Res. Vol. 24, 1127-34 (1983)], rabbit's liver microsome was treated to obtain enzyme fraction. To 0.154M of phosphoric acid buffer solution (pH 7.4), 2 mM of dithiothreitol, 36 μM of bovine serum albumin and 10 to 100 μg of microsome fraction, liposome prepared by Suckling's method [K. E. […] Then, 36 μM oleoyl CoA containing 1-^14 C-oleoyl CoA was added and the whole mixture was heated for 10 minutes at the temperature of 37° C. The reaction was ceased by adding chloroform/methanol (=2/1). Upon stirring, cholesterol oleate extracted into chloroform layer was separated by thin layer chromatography and the radioactivity was then determined as ACAT activity.

This passage reports IC50 results from patent US5091419A, “Diurea derivatives useful as medicaments and processes for the preparation thereof” (Yamanouchi Pharmaceutical Co., Ltd., priority 1988, dated 1992).

For the compound `O=C(Nc1ccc(F)cc1F)N(Cc1cccc(CN(C(=O)Nc2ccc(F)cc2F)C2CCCCCC2)c1)C1CCCCCC1` [Example 1, 1,3-bis[[1-cycloheptyl-3-(2,4-difluorophenyl)ureido]methyl]benzene], the IC50 was determined as 1.8e-08 M.
